Laboratory results: patent publication US11407796B2, “Antisecretory factor 17” (LANTMÄNNEN AS-FAKTOR AB, priority 2016, dated 2022)
Like-named read-outs stand apart in the source and are kept apart here. Ends that are not written are not given here. Peptide text beside a SMILES is read from it. * marks the point of attachment. Succinimide(1-Et,3-yl) = CCN1C(=O)CC(*)C1=O

Columns and labels:
[1] = AF16 metabolite identification in human plasma; type: in vitro ADME
Protocol: (§1) (10 μM incubation conc.).
(§2) The flow rate was 0.5 ml/min.
(§3) AF16 and the isotopically labelled peptide in similar quantity were incubated in plasma of rat and human as described above. For analysis of full scan MS data, the metabolite identification software from Sciex, Lightsight, was used, which compares the incubated MS response to the quality control (QC) sample and assigns apparent peaks as metabolites with specific mass over charge (m/z) values. The software is currently not optimal to use with multi-charged compounds such as peptides so the hit-rate of metabolite detection is fairly high and manual assessment of each found peak had to be performed. The largest metabolite peak areas were then rank ordered and in some cases verified by MS/MS fragmentation. Skyline methodology was used to predict fragmentation of the identified peptides, but also aided in creating sensitive MRM methods so that low amounts could be monitored.

[2] = plasma
[3] = AF16 and AF16-NEM stability in human plasma; type: in vitro ADME; details: for half-life: 37° C.
Protocol: Test of AF16 and AF16-NEM stability in plasma was performed using pooled human plasma (4 donors, two female+two male) in HPLC glass vials at 37° C. (20 μM incubation conc.). Four different matrices were tested: Plasma: isotonic 67 mM potassium phosphate pH 7.4 (KP) (1:1), plasma:KP+0.1 mM DTT, KP and KP+0.1 mM DTT. Incubation times were 0, 1.5 and 3 h. At the indicated times a 50 μl aliquot was extracted and quenched/precipitated in 150 μl ice-cold methanol and frozen until analysis. Relative quantification was performed UPLC-MS/MS.
AF16, the stable isotope labeled (SIL) AF16 and the alkylated analog AF16-NEM were incubated at 1 μM in human plasma: 0.1M potassium phosphate pH 7.4 (KP) (1:1), human plasma: KP (1:1)+1 mM DTT, KP or KP+1 mM DTT over 3 h at 37° C. to investigate stability. KP was included to provide buffer capacity to the plasma and to not confuse the results with pH related effects.

Caco-2 cells = test: AF16 stability and metabolite formation with Caco-2 cells; type: in vitro ADME
Protocol: (§4) Investigation of the fate of AF16 in the presence of Caco-2 cells was performed on three separate occasions. Firstly, a quantitative measurement was performed using MRM methodology (table 1) over 0, 15, 30 and 60 min. Here, AF16 or its possible sulfonic acid metabolite was monitored both in the apical and in the basolateral compartment (not shown). The second experiment was a qualitative determination of the fate of AF16 during a 60 min incubation. 50 μM AF16 in HBSS buffer was incubated at the apical side of the Caco-2 cell monolayer and 100 μl aliquots was extracted at 5, 10, 20, 30 and 60 min. The sample was placed on a 96-well plate containing 100 μl MeCN/H2O. The plate was sealed and frozen until full-scan UPLC-MS analysis (see below and table 2). The third experiment was a mirror of the second and the only difference was that a HBSS solution of AF16:AF16 IS (1:1) was used, to aid in the structure elucidation.
(§5) All samples from the different assays were analyzed by UPLC-MS/MS. The following system was used, a Waters XEVO TQ triple-quadrupole mass spectrometer (electrospray ionization, ESI) coupled to a Waters Acquity UPLC (VVaters Corp.). For chromatographic separation a general gradient was used (1% mobile phase B to 50% over 3 min total run) on a C18 BEH 1.7 μm column 2×100 mm (VVaters Corp.). Mobile phase A consisted of 0.05% TFA and mobile phase B 100% acetonitrile. The flow rate was 0.5 ml/min. In the full-scan MS analysis the same chromatographic settings was used except that 10 μl was injected (full loop). The MS was set to scan for ions in the 100-400 or 400-700 m/z window using the cone voltage in table 1.
(§6) It is well known that in the intestine, and as such at the apical side of Caco-2 cells, brush-border peptidases exist. To further investigate this, a separate experiment was designed. Caco-2 cells were exposed at the apical side to 50 μM AF16, with or without a protease inhibitor cocktail, and were sampled over 1 h.

[4] = as above; type: in vitro ADME; details: Caco-2, 50 μM, apical side of Caco-2 cells
Protocol: as §4, §5, §6

[5] = AF16 metabolite identification in rat plasma; type: in vitro ADME
Protocol: as §1, §2, §3

[6] = Kinetics of AF16 and metabolites in plasma with ZnSO4 precipitant +/-DTT; type: in vitro ADME, human, rat; details: plasma precipitated with ZnSO4, +/−DTT
Description: The kinetics shown in FIG. 13 was surprising given the fact that DTT was used in the quenching solution with TCA, although it is likely that the reducing capability of DTT is lowered in acidic conditions. It was therefore tested if the same pattern occurred when using a neutral precipitant ZnSO4 (without NaOH). This precipitation method is not as efficient but would hopefully give more information on the formation of the major disulfide products.

[7] = human plasma:KP (1:1) + DTT, read-out: in vitro half-life (t½) with DTT (converted)
[8] = human plasma:KP pH 7.4 (1:1), no DTT, read-out: in vitro half-life (t½) (converted)
[9] = 30 min incubation of AF16, (+) inhibitor cocktail
[10] = 30 min incubation of AF16, (−) inhibitor cocktail
[11] = 60 min incubation of AF16, (+) inhibitor cocktail
[12] = 60 min incubation of AF16, (−) inhibitor cocktail

% of QC area at 30 min incubation time [1] [%]	half-life [2] [min]	half-life [3, 7] [min]	half-life [3, 8] [min]	t½ of degradation with inhibitor cocktail (Caco-2 cells; 50 μM, apical side of Caco-2 cells, with protease inhibitor cocktail (Bestatin, Diprotin A, Captopril)) [min]	Tentative amounts (%) of molecular species (Caco-2 cells; [9]) [%]	Tentative amounts (%) of molecular species (Caco-2 cells; [10]) [%]	Tentative amounts (%) of molecular species (Caco-2 cells; [11]) [%]	Tentative amounts (%) of molecular species (Caco-2 cells; [12]) [%]	half-life ([4]; with protease inhibitor cocktail (Bestatin, Diprotin A, Captopril), read-out: t½ of degradation with inhibitor cocktail) [min]	half-life ([4]; without inhibitor cocktail, read-out: t½ of degradation) [min]	% of QC area at 30 min incubation time [5] [%]	fold higher stability than AF16 ([3]; human plasma, no DTT) [fold]	Molecule	resilience of the disulfide against DTT reduction [6]
1	≤ 10	66	24	55	79	6	63	1	57	8	4		CC(C)C[C@H](NC(=O)CNC(=O)[C@@H](NC(=O)[C@H](CC(N)=O)NC(=O)[C@H](CC(N)=O)NC(=O)[C@H](CCC(=O)O)NC(=O)[C@@H]1CCCN1C(=O)[C@H](CC(N)=O)NC(=O)[C@H](CO)NC(=O)[C@H](CCCNC(=N)N)NC(=O)[C@@H](NC(=O)[C@H](CCCCN)NC(=O)[C@H](CO)NC(=O)[C@H](Cc1c[nH]cn1)NC(=O)[C@H](CS)NC(=O)[C@@H](N)C(C)C)[C@@H](C)O)C(C)C)C(=O)O [AF16, VCHSKTRSNPENNVGL] (H-VCHSKTRSNPENNVGL-OH; N-terminus and C-terminus assumed)	
		252	108									~5	CCN1C(=O)CC(SC[C@H](NC(=O)[C@@H](N)C(C)C)C(=O)N[C@@H](Cc2c[nH]cn2)C(=O)N[C@@H](CO)C(=O)N[C@@H](CCCCN)C(=O)N[C@H](C(=O)N[C@@H](CCCNC(=N)N)C(=O)N[C@@H](CO)C(=O)N[C@@H](CC(N)=O)C(=O)N2CCC[C@H]2C(=O)N[C@@H](CCC(=O)O)C(=O)N[C@@H](CC(N)=O)C(=O)N[C@@H](CC(N)=O)C(=O)N[C@H](C(=O)NCC(=O)N[C@@H](CC(C)C)C(=O)O)C(C)C)[C@@H](C)O)C1=O (stereo partly shown) [AF16-NEM] (H-VC(Succinimide(1-Et,3-yl))HSKTRSNPENNVGL-OH; N-terminus and C-terminus assumed)	
0.9					2	38	4	24			0.4		CC(C)C[C@H](NC(=O)CNC(=O)[C@@H](NC(=O)[C@H](CC(N)=O)NC(=O)[C@H](CC(N)=O)NC(=O)[C@H](CCC(=O)O)NC(=O)[C@@H]1CCCN1C(=O)[C@H](CC(N)=O)NC(=O)[C@H](CO)NC(=O)[C@H](CCCNC(=N)N)NC(=O)[C@@H](NC(=O)[C@H](CCCCN)NC(=O)[C@H](CO)NC(=O)[C@@H](N)Cc1c[nH]cn1)[C@@H](C)O)C(C)C)C(=O)O [M3, HSK TRSNP ENNVG L] (H-HSKTRSNPENNVGL-OH; N-terminus and C-terminus assumed)	
													C[SCC]HSKTRSNPENNVGL (not fully specified (N-terminus); printed as C[SCC]HSKTRSNPENNVGL; also: [SCC] on the N-terminal Cys, meaning not given here) [M10]	resilient
